Each structure is given as a SMILES string.

Data set [1] relates to aMCI subjects. The experiment in a line: Neuropsychological tests outside the scanner (Buschke, Benton, Verbal Paired Associates). Format: in vivo, human. Particulars: levetiracetam 125 mg twice a day for two weeks.
Data set [2] has as its system aMCI subjects. The experiment in a line: fMRI activity of medial temporal lobe subregions during the explicit 3-alternative forced choice task (Examples 2 and 3). Format: in vivo, human. On the procedure: A within-subjects trial of 8 weeks duration, involving 17 amnestic MCI (aMCI) subjects and 17 age-matched controls with a low dose treatment of levetiracetam is conducted. […] Age-matched control subjects treated with placebo serve as a further control. […] The […]

For data set [3] the following is noted: following oral administration; cited from earlier work.
Data set [4] concerns aged-impaired (AI) Long-Evans rats. The experiment in a line: Morris Water Maze retention trial, levetiracetam (Example 1). The note with it: levetiracetam 5 mg/kg/day i.p.; retention trial 24 hours after last training trial. Format: in vivo, rat. Here is the method:
Six aged-impaired (AI) Long-Evans rats (as characterized above) were tested for their memory of new spatial information in the Morris water maze (MWM), under different drug/control treatment conditions (vehicle control and two different dosage levels of levetiracetam). A retention trial was performed after the training trials, as described below. The MWM apparatus consists of a large, circular pool (diameter 1.53 m; height, 0.58 m) filled with water (27° C.) that is made opaque through the addition of non-toxic pigment or some other substance. In the typical “hidden platform” version of the test, rats are trained to find a camouflaged white escape platform (height, 34.5 cm) that is positioned in the center of one quadrant of the maze about 1.0 cm below the water surface. This platform can be retracted to the bottom of the tank or raised to its normal position from outside the maze during behavioral testing. The location of the platform remains constant from trial to trial. […] The behavior of a rat in the pool is recorded by a camera that is suspended 2.5 m above the center of the pool. […] In the retention trial, the time the AI rats spent swimming in the target quadrant is measured and further plotted as a percentage of total swimming time. […]

Data set [5] relates to aMCI subjects. Put plainly: Explicit 3-alternative forced choice task performance (Examples 2 and 3). Format: in vivo, human.
A further data set has as its system somatostatin in DG hilus. Put plainly: Somatostatin immunohistochemistry, hilar interneuron counts (Example 5). Format: in vivo, rat. Particulars: levetiracetam 10 mg/kg/day in osmotic minipumps for four weeks; aged-impaired rats. The source says: Tissue was labeled with anti-SOM antiserum (Santa Cruz Biotechnology; cat. no. SC7819-P) using an established immunoperoxidase protocol and tissue sections were processed concurrently to minimize inter-replication variability (Haberman et al., 2009). The anti-SOM antiserum can detect somatostatin. Briefly, sections were washed in 0.1M phosphate-buffered saline (PBS) to remove cryoprotectant, and endogenous peroxidases were quenched in 0.3% H2O2 in PBS. After additional PBS washes, sections were blocked in 5% normal horse serum in PBS with 0.3% Triton. Sections were then incubated with primary antibody at a dilution of 1:1600 in PBS containing 0.15% Triton and 3% normal serum for 72 hours at 4° C. with agitation. […] The secondary antibody was detected with avidin-biotin complex (ABC Elite; Vector Laboratories Inc., Burlingame, Calif.) and the avidin-biotin complex was visualized with nickel-enhanced diaminobenzadine (Vector Laboratories Inc., Burlingame, Calif.). […]
Interneuron quantification was performed using a Zeiss Axioplan 2 microscope equipped with a motorized stage. […] Neuron counts were analyzed as the total number of hilar interneurons per hippocampal section for each rat.

As for `CC[C@@H](C(N)=O)N1CCCC1=O` [levetiracetam, (2S)-2-(2-oxopyrrolidin-1-yl)butanamide], the “performance in Buschke Selective Reminding Test-Delayed Recall, Benton Visual Retention Test, Verbal Paired Associates Test-Recognition and -Delayed Recall” value in the data set on aMCI subjects [1] is reported as “fail to rescue performance”. Further, the “DG/CA3 hyperactivity during memory judgments” value with aMCI subjects [2] (levetiracetam 62.5 mg BID for two weeks, aMCI subjects (N=20)) is listed as “does not significantly reduce”; with aMCI subjects [2] (levetiracetam 250 mg BID for two weeks, aMCI subjects (N=17)), “does not significantly reduce”. Also, in the data set on aMCI subjects [2] (levetiracetam 125 mg twice a day for two weeks, aMCI subjects), the “entorhinal cortex (EC) activity during memory judgments” value is given as “increases EC activity”. Moreover, in the data set on aMCI subjects [2] (levetiracetam 125 mg twice a day for two weeks, vs placebo in same aMCI subjects), the “DG/CA3 activity during lure stimuli correctly identified as similar” value is recorded as “reduces DG/CA3 hyper-activity”. The “time of peak plasma concentrations” value in data set [3] was “about 1 hour”. Further, in data set [4], the “time spent in the target quadrant vs vehicle” value is “did not significantly improve”. The “performance in the explicit 3-alternative forced choice task” value in the data set on aMCI subjects [5] (levetiracetam 62.5 mg BID for two weeks) is reported as “improves significantly”; with aMCI subjects [5] (levetiracetam 125 mg twice a day for two weeks) it was “improves significantly”; in the data set with aMCI subjects [5] (levetiracetam 250 mg BID for two weeks), “does not significantly improve”. In the data set with somatostatin in DG hilus, the “levels of somatostatin in DG hilus (SOM-immunoreactive hilar neurons)” value was “restores the levels of somatostatin in DG hilus”.

Values taken from US20230270753A1, “COMBINATIONS OF GABAA ALPHA 5 AGONISTS AND SV2A INHIBITORS AND METHODS OF USING IN THE TREATMENT OF COGNITIVE IMPAIRMENT” (AGENEBIO, INC., priority 2020, published 2023).
